Patent US10662555B2, “Polyimide fiber and method for producing polyimide fiber” (I.S.T Corporation, priority 2016, dated 2020)

Assays:
[1] = octanol-water partition coefficient (Log P) at 25° C., shake flask method; settings: for logP: octanol/water; for Log P: octanol-water partition coefficient at 25° C.
[2] = conjugate acid in water at 25° C.; cited from earlier work

Cc1nccn1C [1,2-dimethyl-1,3-diazole]
logP [1]: 0.11

Cn1ccnc1 [1-methyl-1,3-diazole]
logP [1]: -0.19
pKa [2]: 6.95

Cc1ncc[nH]1 [2-methyl-1,3-diazole]
Log P [1]: 0.24

C1CNCCN1 [Piperazine, piperazine]
Log P [1]: −1.5

CCCCN(CCCC)CCCC [Tributylamine, tributylamine]
Log P [1]: >2.79
logP [1]: > 2.79

CCN(CC)CC [Triethylamine, triethylamine]
logP [1]: 1.45

CCCN(CCC)CCC [Tripropylamine, tripropylamine]
Log P [1]: 2.79

CC(O)CN(CC(C)O)CC(C)O (centres unmarked) [triisopropanolamine]
logP (physchem): -0.015

Cc1cccnc1 [β-picoline]
Log P [1]: 1.2
